The source of these data is ChEMBL document CHEMBL3507680, “University of Dundee, Gates Library screen for HepG2 cell viability”.

Molecules are shown by their SMILES.

The nature of the data set: Human HepG2 cell viability assay in 384 well format. Conditions: HepG2 cells, read-out: Inhibition. It counts as toxicity, cell-based. More on the design: dose 125 nL, time 70.5 hour; cytotoxicity at 70.5 h: concentration not given beside the values.
On to `CC(C)n1cc(C(=O)NCCCc2csc(N)n2)cn1`, for which the cytotoxicity at 70.5 h is -9.21%.
In the case of `CC(C)(O)CCc1ccc(C(=O)N2Cc3cnn(CCO)c3C2)cc1`, the cytotoxicity at 70.5 h is -11.3%.
Turning to `COCC(=O)NC[C@]1(O)CN(Cc2ccc3c(c2)OCCO3)C[C@H]1O`, the cytotoxicity at 70.5 h is -12.9%.
As for `CN(C)C(=O)CN1C[C@@H]2CC[C@H](C1)N(Cc1ccc(Cl)cc1Cl)C2`, the cytotoxicity at 70.5 h was determined as 2.51%.
The same measure for `CNC(=O)Cc1coc(-c2ccc(F)cc2)n1`: -16.9%; for `CC(=O)Nc1nc(CN2CCCC2c2cnn(C)c2)cs1` (stereo not drawn): 31.4%.
Regarding `COCC(C)NC(=O)CN1CCC(CO)CC1` (stereo not drawn), the cytotoxicity at 70.5 h was -3.9%.
On to `Cc1csc(NCC(=O)c2c[nH]c3ccccc23)n1`, for which the cytotoxicity at 70.5 h was determined as 3.37%.
The same measure for `Cc1nccn1CC1CCCN1S(=O)(=O)Cc1ccc(F)cc1` (stereo not drawn): -0.149%.
In the case of `CC1CN(CC(=O)Nc2nncs2)CCN1c1nccs1` (stereo not drawn), the cytotoxicity at 70.5 h was -9.27%.
Take `CCN(CC)S(=O)(=O)N(Cc1ccccn1)Cc1ccccc1C`: the cytotoxicity at 70.5 h amounted to 43.2%.
`CCOCc1ncn2c1CN(S(=O)(=O)c1cccs1)CC2`: the cytotoxicity at 70.5 h is -0.803%.
Turning to `COc1ccc(CC2CN(C3CCSCC3)CCO2)cc1` (stereo not drawn), the cytotoxicity at 70.5 h is 1.2%.
As for `CCNC(=O)C1CCN(Cc2csc(-c3ccc(C)o3)n2)CC1`, the cytotoxicity at 70.5 h came to 0.934%.
For `Cc1nc(-c2ccncc2)ncc1C(C)NC(=O)CN1CCCCC1` (stereo not drawn), the cytotoxicity at 70.5 h is -7.41%.
As to `O=C(Nc1cnc2n1CCCC2)C1CCCN1C1CCNCC1` (stereo not drawn), the cytotoxicity at 70.5 h is -15%.
Turning to `O[C@H]1CCN(CC2CC2)[C@H]1Cc1ccncc1`, the cytotoxicity at 70.5 h is -4.14%.
On to `COCC(O)CN(C)c1ccnc2cc(Br)ccc12` (stereo not drawn), for which the cytotoxicity at 70.5 h was -6.19%.
Turning to `COc1cccc(C2=CCN(CCN3CCCC3=O)CC2)c1`, the cytotoxicity at 70.5 h was -7.88%.
The result for `CCC(NC(=O)c1ccco1)c1ccccc1OCC(=O)N1CCCC1` (stereo not drawn) reads -6.16%; that for `CC(C)(C)c1cnc(CN2CCC(c3ccnn3CCO)CC2)o1`, -11.1%; that for `O=S(=O)(NCCCn1cncn1)c1ccc2c(c1)OCCCO2`, -6.28%.
As to `CCOC1CCN(C(=O)c2cc(-c3ccc(Cl)cc3)on2)CC1`, the cytotoxicity at 70.5 h is -5.56%.
For the molecule `COc1ccc(OC2CCN(C(=O)[C@@H](N)Cc3c[nH]cn3)CC2)cc1`, the cytotoxicity at 70.5 h is 1.71%.
The result for `c1ccc(NC[C@@H]2CCC[C@@H]3CN(Cc4cccnc4)C[C@@H]32)nc1` reads -5.9%.
`CN1N=C(C(=O)N(Cc2ccco2)C2CCCC2)CCC1=O`: the cytotoxicity at 70.5 h is -9.57%.
On to `COc1ccc(Cl)cc1C(=O)NC(CC(=O)O)c1cccs1` (stereo not drawn), for which the cytotoxicity at 70.5 h was -11%.
Turning to `Cc1cc(C(=O)N2CCCC2c2noc(C)n2)[nH]n1` (stereo not drawn), the cytotoxicity at 70.5 h amounted to 1.6%.
With `CN(CCC#N)C(=O)Cn1nnnc1C(C)(C)C`, the cytotoxicity at 70.5 h was -16.8%.
The same measure for `CN(Cc1ccsc1)C(=O)Nc1ccc(S(C)(=O)=O)nc1`: 2.4%.
On to `CNC(=O)c1ccc(-c2ccccc2)n1C`, for which the cytotoxicity at 70.5 h was -9.17%.
With `Cc1cc2nc(-c3cn(C4CCNCC4)nn3)[nH]c2cc1C`, the cytotoxicity at 70.5 h is -2.26%.
Turning to `c1cnnc(N2CCCC2CNCc2cnc(N3CCCC3)nc2)c1` (stereo not drawn), the cytotoxicity at 70.5 h was -7.83%.
Regarding `Cn1nc(CN2CCCCC2)c2c1CN(C(=O)c1ccccc1)C2`, the cytotoxicity at 70.5 h is 23.3%.
In the case of `Cc1csc(NC(=O)C2CSCCC(=O)N2)n1` (stereo not drawn), the cytotoxicity at 70.5 h is -0.709%.
For the molecule `CCc1nc(CCNC(=O)Nc2ccc(C(=O)NC)cc2)cs1`, the cytotoxicity at 70.5 h is -1.4%.
Consider `CC(=O)N1CCCC1c1cc(N2CCN(C3CCCC3)CC2)cc(C)n1` (stereo not drawn), for which the cytotoxicity at 70.5 h is -7.01%.
The result for `Cc1c(Cl)cccc1NC(=O)N1CCC2(CC1)NC(=O)CC2C(=O)O` (stereo not drawn) reads 1.01%.
As to `CCCC(=O)N1CCN(CCN(C)C)c2nc(C)ccc2C1`, the cytotoxicity at 70.5 h was -2.97%.
`COC(=O)CCCn1ccnc1-c1ccc(OC)c(F)c1F`: the cytotoxicity at 70.5 h was 3.06%.
`O=C(NCCc1noc(-c2ccccn2)n1)NCC1CCCC1`: the cytotoxicity at 70.5 h is -4.99%.
As to `COCc1n[nH]c2c1CN(Cc1ccccn1)C2`, the cytotoxicity at 70.5 h is -9.17%.
Regarding `CCCn1nc2c(cc1=O)CN(Cc1ncc(C(C)(C)C)o1)CC2`, the cytotoxicity at 70.5 h was -4.85%.
Regarding `CN(C)CCCN(C)C1CCN(c2cccc(-c3cscn3)c2)CC1`, the cytotoxicity at 70.5 h was -2.04%.
The result for `COc1ccc(C)cc1C(=O)N1C[C@@H](CN(C)CCO)[C@@H](CO)C1` reads 0.0463%; that for `c1ccc(CCc2n[nH]c(C3CCC3)n2)cc1`, -2.16%; that for `CC(CN1CCCC1=O)NC(=O)Nc1ccccc1Cn1cccn1` (stereo not drawn), -5.84%.
With `Cc1cc(N2CCCN(CCc3ccccc3)CC2)ccn1`, the cytotoxicity at 70.5 h was -5.44%.
The same measure for `COc1cc(NC(=O)N2CCCC2c2nncn2C)ccc1Br` (stereo not drawn): -4.18%; for `COC(=O)CCC(=O)N1CCC2(CN(Cc3ccccc3)C2)C1`: 21%; for `COCCOc1ccccc1CNCC1COC2(CCCC2)O1` (stereo not drawn): 0.252%.
Consider `O=C(NC1CC1)[C@@H]1C[C@@H]2CCN(Cc3ccoc3)C[C@@H]2O1`, for which the cytotoxicity at 70.5 h was -8.25%.
Regarding `OCCn1cc(CN2CCN(CCOc3ccccc3)CC2)cn1`, the cytotoxicity at 70.5 h is -16%.
On to `CCOCCCNC(=O)CN(c1cccc(F)c1)S(C)(=O)=O`, for which the cytotoxicity at 70.5 h is -21.2%.
Turning to `CC(C)OCCS(=O)(=O)N1CCN(Cc2ccco2)CC1`, the cytotoxicity at 70.5 h was -4.45%.
For `CCN1CC(C(=O)N(C)Cc2ccon2)CC1=O` (stereo not drawn), the cytotoxicity at 70.5 h turned out to be 25.3%.
The same measure for `CCN1CCN(C2CCN(Cc3nc(CCOC)no3)CC2)C1=O`: -3.79%; for `CC(C)(CO)Nc1cc(-c2ccccc2)ncn1`: -2.92%; for `NC(=O)N1CCCC(C(=O)NCCc2nc(Cc3ccccc3)no2)C1` (stereo not drawn): -17.9%.
The same measure for `CC(C)CC(NC(=O)c1ccco1)c1nc2cccnc2n1C` (stereo not drawn): -1.92%; for `CN(C)C(=O)CC1CC2(CCN(Cc3cccs3)CC2)c2ccccc21` (stereo not drawn): -20%.
Take `Cc1cc(C)n(C2CCN(c3ncnc4sc5c(c34)CCNC5)C2)n1` (stereo not drawn): the cytotoxicity at 70.5 h was -18.5%.
`CCc1nnc(CNC(=O)c2cc3c(nc2OC)CCC3)s1`: the cytotoxicity at 70.5 h is 2.77%.
Consider `O=C(c1cccnc1)N1Cc2[nH]nc(COCCO)c2C1`, for which the cytotoxicity at 70.5 h is -4.06%.
On to `O=C(CN1C(=O)CC2(CCCC2)C1=O)NCCc1nccs1`, for which the cytotoxicity at 70.5 h was -14.1%.
For the molecule `CN(C)C(=O)c1cnc2n1CCN(Cc1ccccc1)C2`, the cytotoxicity at 70.5 h is -15.3%.
The same measure for `Cn1nnnc1SCC1(O)CCCCC1`: -5.84%; for `COc1ccc(C)cc1-c1csc(Cn2ccc(=O)[nH]c2=O)n1`: 2.92%; for `CN(C)c1ncccc1C(=O)N1CCCN(c2cccnn2)CC1`: -6.59%.
`O=C(NCc1cccc(F)c1)N1CCC2(CC(=O)N(c3ccsc3)C2)C1` (stereo not drawn): the cytotoxicity at 70.5 h is 4.74%.
For `O=C(c1ccc(Cn2ccccc2=O)o1)N1CCC2(CC1)OCCO2`, the cytotoxicity at 70.5 h was -2.65%.
In the case of `CN(C)CCN1C[C@@H]2OCCN(Cc3cnn(C)c3)[C@@H]2C1`, the cytotoxicity at 70.5 h was -8.58%.
Consider `O=C(c1cccc(F)c1)N1C[C@H]2CN(Cc3ccccn3)C[C@H]2C1`, for which the cytotoxicity at 70.5 h is -16%.
